Source: US10662146B2, “Prodrugs of fencamfamine” (Praxis Bioresearch, LLC, priority 2015, dated 2020)
Where “and” joins values, the source holds several entries; their conditions need not be identical. Identical values can stand only once. Like-named read-outs stand apart in the source and are kept apart here.

Assay: Single dose intravenous PK study in male Sprague Dawley rats (plasma by LC-MS/MS)
Type: in vivo
Details: for AUC(0-inf) / AUC(0-t) / C0 / clearance / Cmax / MRT last / half-life / Vd / Tmax / AUC: male, rat; for AUC(0-inf) / AUC(0-t) / C0 / clearance / Cmax / MRT last / half-life / Vd: iv; for AUC: read-out: IV PK Parameters AUC, Prodrug
Description: We describe here PK results of prodrugs of PRX-002 (−) or (+) isomers. All doses of prodrugs were administered such that they were equivalent to 5 mg/kg of PRX-002 (−) or (+) for oral studies and 2 mg/kg PRX-002 (−) or (+) for intravenous studies in male Sprague-Dawley (MSD) rats. Higher doses of up to 10 or 15 mg/kg [again equivalent to PRX-002 (−)] were used in some studies (as specified)]. Formulation preparation, dose administration and time of sample collection was as follows.
(§1) Adult male Sprague Dawley Rats aged 8-10 weeks were used for the study. Animals were administered the test item by Intravenous bolus route with a dose of 2 mg/kg body weight at dose volume of 5.0 mL/kg body weight. Under mild isoflurane anesthesia, blood specimens were collected by retro-orbital puncture method using capillary tubes into pre-labeled tubes containing anticoagulant (K2EDTA-2 mg/mL blood) during the next 24 hours of post dose as mentioned in below table. For blood sampling at multiple time points, right and left eyes were used alternatively for blood collection. Collected blood specimens were centrifuged at 4000 rpm, 4° C. for 10 minutes and plasma were separated and stored at −80° C. until analysis.
Blood was collected as outlined in Table 39.2 (IV).
Test item PRX-P4-003 was weighed and transferred to a graduated tube. Then 600 μL of PEG 400 (v/v) was added and vortex mixed thoroughly until the test item was completely dissolved. Then 1.800 mL of Hydroxypropyl-β-cyclodextrin (HPβCD, 50% w/v) was added and vortex mixed thoroughly. The final volume was then made up to 3.600 mL with sterile water for injection (SWFI, v/v) with final formulation strength of 5.16 mgA/mL. […] This formulation was freshly prepared before the administration to animals.
as §1, with “administered with a PRX-P4-003” for “administered the test item”, “of 10” for “of 2”, “of 5” for “of 5.0”
Test item PRX-P5-006 was weighed and transferred to a graduated tube. Then 500 μL of DMSO (v/v) was added vortex mixed thoroughly until the test item was completely dissolved. Then 4000 μL of Hydroxypropyl-β-cyclodextrin (HPβCD, 50% w/v) was added and vortex mixed thoroughly. Then 2500 μL of PEG 400 (v/v) was added and vortex mixed thoroughly. The final volume was then made up to 10000 μL with sterile water for injection (SWFI, v/v) with final formulation strength of 3.97 mg/mL. […] This formulation was freshly prepared before the administration to animals.
as §1, with “administered with a PRX-P5-006” for “administered the test item”, “of 15” for “of 2”, “of 10” for “of 5.0”
The plasma concentrations of fencamfamine were measured by LC-MS/MS over time. […] The release of fencamfamine from the prodrugs varied depending on the chain length of the fatty acid linkers attached to fencamfamine. […]

[1] = PRX-P5-006 IV 2 mg/kg b.w., individual animals, 2 mg/kg
[2] = PRX-P5-006 IV 2 mg/kg, mean, 2 mg/kg

With `CCN[C@H]1[C@H]2CC[C@H](C2)[C@@H]1c1ccccc1` [PRX-002 (+) Isomer, (1S,2S,3R,4R)—N-Ethyl-3-phenylbicyclo[2.2.1]heptan-2-amine, reference compound] the AUC(0-inf) (Sprague Dawley, plasma, 2 mg/kg, single IV dose 2 mg/kg b.w., mean plasma PK parameters (Table 39.27), read-out: AUCinf) was 268 ± 23.5 ng·h/mL, the AUC(0-t) (Sprague Dawley, plasma, 2 mg/kg, single IV dose 2 mg/kg b.w., mean plasma PK parameters (Table 39.27), read-out: AUClast) was 250 ± 15.2 ng·h/mL and the C0 (Sprague Dawley, plasma, 2 mg/kg, single IV dose 2 mg/kg b.w., mean plasma PK parameters (Table 39.27), read-out: C0) was 291 ± 61.8 ng/mL. The clearance (Sprague Dawley, plasma, 2 mg/kg, single IV dose 2 mg/kg b.w., mean plasma PK parameters (Table 39.27), read-out: CL) was 125 ± 10.6 mL/min/kg, the Cmax (Sprague Dawley, plasma, 2 mg/kg, single IV dose 2 mg/kg b.w., mean plasma PK parameters (Table 39.27), read-out: Cmax) was 234 ± 37.9 ng/mL and the MRT last (Sprague Dawley, plasma, 2 mg/kg, single IV dose 2 mg/kg b.w., mean plasma PK parameters (Table 39.27), read-out: MRTlast) was 1.05 ± 0.071 h. It also gave a half-life (Sprague Dawley, plasma, 2 mg/kg, single IV dose 2 mg/kg b.w., mean plasma PK parameters (Table 39.27), read-out: T1/2 (converted)) of 1.08 ± 0.152 h, a Vd (Sprague Dawley, plasma, 2 mg/kg, single IV dose 2 mg/kg b.w., mean plasma PK parameters (Table 39.27), read-out: Vss) of 10.1 ± 0.51 L/kg and a Tmax (Sprague Dawley, single IV dose 2 mg/kg b.w., mean plasma PK parameters (Table 39.27), read-out: Tmax) of 4.8 min. The AUCextrap (single IV dose 2 mg/kg b.w., mean plasma PK parameters (Table 39.27)) was 6.639 ± 2.427%.
In the case of `CCCCCCCCCCCCCCCCCC(=O)OC(C)OC(=O)N(CC)C1C2CCC(C2)C1c1ccccc1` (single isomer, unassigned) [PRX-P5-006, N-(1-Octadecanoyloxyethoxycarbonyl)-(−)-N-ethyl-3-phenylbicyclo[2.2.1]heptan-2-amine], the “AUC% extrap of PRX-P5-006” value [1] is reported as 5.16% and 3.49% and 11.16%, the “AUCinf of PRX-P5-006” value [1] is reported as 3977.39 ng·h/mL and 4119.23 ng·h/mL and the “AUClast of PRX-P5-006” value [1] is reported as 3838.58 ng·h/mL and 3659.58 ng·h/mL. For the same compound, the “C0 of PRX-P5-006” value [1] was 32467.12 ng/mL and 21202.31 ng/mL, the “CL of PRX-P5-006” value [1] was 8.38 mL/min/kg and 8.09 mL/min/kg and the “Cmax of PRX-P5-006” value [1] was 8662.3 ng/mL and 7404.71 ng/mL. The “MRTlast of PRX-P5-006” value [1] was 2.7 h and 0.93 h and 3.31 h, the “T1/2 of PRX-P5-006” value [1] was 7.54 h and 2.06 h and 9.32 h and the “Vss of PRX-P5-006” value [1] was 1.56 L/kg and 0.61 L/kg and 3.46 L/kg. For the same compound, the “AUC% extrap of PRX-P5-006” value [2] was 6.602 ± 4.0330% and 6.602%, the “T1/2 of PRX-P5-006” value [2] was 6.304 h and the “Level of intact PRX-P5-006 in plasma, IV versus oral” value (PRX-P5-006 administered IV (FIGS. 5A, 5B)) was “Much higher level of intact PRX-P5-006”. For the same compound, the Cmax (Sprague Dawley, plasma, 2 mg/kg, IV 2 mg/kg [equivalent to PRX-002 (−)], analyte: prodrug in plasma, mean, read-out: IV PK Parameters Cmax, Prodrug) was 707 ± 500 ng/mL, the AUC(0-inf) (Sprague Dawley, plasma, 2 mg/kg, PRX-P5-006 IV 2 mg/kg, mean, read-out: AUCinf of PRX-P5-006) was 4560 ± 894 ng·h/mL and the AUC(0-t) (Sprague Dawley, plasma, 2 mg/kg, PRX-P5-006 IV 2 mg/kg, mean, read-out: AUClast of PRX-P5-006) was 4270 ± 902 ng·h/mL. It also gave a clearance (Sprague Dawley, plasma, 2 mg/kg, PRX-P5-006 IV 2 mg/kg, mean, read-out: CL of PRX-P5-006) of 7.48 ± 1.32 mL/min/kg, a Vd (Sprague Dawley, plasma, 2 mg/kg, PRX-P5-006 IV 2 mg/kg, mean, read-out: Vss of PRX-P5-006) of 1.88 ± 1.45 L/kg and a Cmax (Sprague Dawley, plasma, 15 mg/kg, IV 15 mg/kg (footnote *), analyte: prodrug in plasma, mean, read-out: IV PK Parameters Cmax, Prodrug) of 16400 ± 7100 ng/mL. It also gave an AUC (Sprague Dawley, IV 2 mg/kg [equivalent to PRX-002 (−)], analyte: prodrug in plasma, mean) of 410 ± 301 ng·h/mL, a Tmax (Sprague Dawley, IV 2 mg/kg [equivalent to PRX-002 (−)], analyte: prodrug in plasma, mean, read-out: IV PK Parameters Tmax, Prodrug) of 4.8 min and an AUC (Sprague Dawley, IV 15 mg/kg (footnote *), analyte: prodrug in plasma, mean) of 8060 ± 1760 ng·h/mL. For the same compound, the Tmax (Sprague Dawley, IV 15 mg/kg (footnote *), analyte: prodrug in plasma, mean, read-out: IV PK Parameters Tmax, Prodrug) was 4.8 min, the AUC(0-inf) (Sprague-Dawley, plasma, 2 mg/kg, PRX-P5-006 IV 2 mg/kg b.w., individual animals, read-out: AUCinf of PRX-P5-006) was 5590 ng·h/mL and the AUC(0-t) (Sprague-Dawley, plasma, 2 mg/kg, PRX-P5-006 IV 2 mg/kg b.w., individual animals, read-out: AUClast of PRX-P5-006) was 5300 ng·h/mL. For the same compound, the C0 (Sprague-Dawley, plasma, 2 mg/kg, PRX-P5-006 IV 2 mg/kg b.w., individual animals, read-out: C0 of PRX-P5-006) was 36200 ng/mL, the clearance (Sprague-Dawley, plasma, 2 mg/kg, PRX-P5-006 IV 2 mg/kg b.w., individual animals, read-out: CL of PRX-P5-006) was 5.96 mL/min/kg and the Cmax (Sprague-Dawley, plasma, 2 mg/kg, PRX-P5-006 IV 2 mg/kg b.w., individual animals, read-out: Cmax of PRX-P5-006) was 11200 ng/mL. The C0 (Sprague-Dawley, plasma, 2 mg/kg, PRX-P5-006 IV 2 mg/kg, mean, read-out: C0 of PRX-P5-006) was 30000 ng/mL, the Cmax (Sprague-Dawley, plasma, 2 mg/kg, PRX-P5-006 IV 2 mg/kg, mean, read-out: Cmax of PRX-P5-006) was 9100 ± 1950 ng/mL and the MRT last (Sprague-Dawley, plasma, 2 mg/kg, PRX-P5-006 IV 2 mg/kg, mean, read-out: MRTlast of PRX-P5-006) was 2.31 ± 1.24 h. It also gave a half-life (Sprague-Dawley, plasma, 2 mg/kg, PRX-P5-006 IV 2 mg/kg, mean, read-out: T1/2 of PRX-P5-006 (converted)) of 6.3 ± 3.79 h and a Tmax (Sprague-Dawley, plasma, PRX-P5-006 IV 2 mg/kg, mean, read-out: Tmax of PRX-P5-006) of 4.8 min.
